From ChEMBL document CHEMBL5143663 (Bioorg Med Chem Lett, 2022)
Values after ≈ are worked out from the molar mass of the structure shown.

Target: T1, Tyrosine-protein kinase JAK2 (Homo sapiens, UniProt O60674)
Test: Inhibition of human JAK2 kinase domain at 100 nM relative to control
Conditions: not given

T1 sequence (O60674 whole entry, the tested form may be a part): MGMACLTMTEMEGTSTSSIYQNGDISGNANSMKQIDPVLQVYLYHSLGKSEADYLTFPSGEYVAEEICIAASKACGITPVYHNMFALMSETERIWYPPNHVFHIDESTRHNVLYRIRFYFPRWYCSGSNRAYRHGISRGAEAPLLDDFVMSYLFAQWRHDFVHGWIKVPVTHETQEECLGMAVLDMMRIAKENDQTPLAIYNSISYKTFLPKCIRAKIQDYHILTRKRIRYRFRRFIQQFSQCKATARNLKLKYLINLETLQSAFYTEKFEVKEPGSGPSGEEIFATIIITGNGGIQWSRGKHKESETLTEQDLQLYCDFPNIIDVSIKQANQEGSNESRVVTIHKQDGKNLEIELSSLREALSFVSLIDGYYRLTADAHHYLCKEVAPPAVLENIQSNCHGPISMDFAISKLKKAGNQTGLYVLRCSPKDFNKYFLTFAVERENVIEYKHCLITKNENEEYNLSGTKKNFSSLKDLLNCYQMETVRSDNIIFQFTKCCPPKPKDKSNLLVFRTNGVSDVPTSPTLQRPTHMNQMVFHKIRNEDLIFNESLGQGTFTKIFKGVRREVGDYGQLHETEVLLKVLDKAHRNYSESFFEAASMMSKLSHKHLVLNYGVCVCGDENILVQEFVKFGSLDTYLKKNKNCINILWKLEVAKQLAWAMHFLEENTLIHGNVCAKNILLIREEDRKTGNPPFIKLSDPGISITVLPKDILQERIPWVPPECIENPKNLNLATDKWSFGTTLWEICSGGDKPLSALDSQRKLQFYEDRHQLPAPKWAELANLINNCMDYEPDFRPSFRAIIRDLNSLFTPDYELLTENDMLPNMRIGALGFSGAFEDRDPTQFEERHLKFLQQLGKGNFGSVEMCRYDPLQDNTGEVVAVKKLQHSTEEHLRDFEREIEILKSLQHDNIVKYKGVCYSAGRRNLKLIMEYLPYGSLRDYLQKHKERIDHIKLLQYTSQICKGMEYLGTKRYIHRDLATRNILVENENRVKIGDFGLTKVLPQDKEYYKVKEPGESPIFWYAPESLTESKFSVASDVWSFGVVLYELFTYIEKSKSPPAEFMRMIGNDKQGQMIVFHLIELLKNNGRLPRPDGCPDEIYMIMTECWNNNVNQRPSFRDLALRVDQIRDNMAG

Row | Compound | inhibition [%]
1 | N#CCNC(=O)c1ccc(-c2ccnc(Nc3ccc(N4CCOCC4)cc3)n2)cc1 [MOMELOTINIB] | 90
2 | N#CCNC(=O)c1ccc(-c2ccnc(Nc3ccc(N4CCOCC4=O)cc3)n2)cc1 | 71
3 | CC(=O)N1C2CC1CN(c1ccc(Nc3nccc(-c4ccc(C(=O)NCC#N)cc4)n3)cc1)C2 | 47

System: not listed separately
Test: Metabolic stability in mouse liver microsomes
Assay type: ADME, Microsome
Conditions: not given

Row | Compound | Stability
4 | N#CCNC(=O)c1ccc(-c2ccnc(Nc3ccc(N4CCOCC4)cc3)n2)cc1 [MOMELOTINIB] | Stable

Target: T2, Tyrosine-protein kinase JAK3 (Homo sapiens) (UniProt P52333)
T2 sequence (whole entry): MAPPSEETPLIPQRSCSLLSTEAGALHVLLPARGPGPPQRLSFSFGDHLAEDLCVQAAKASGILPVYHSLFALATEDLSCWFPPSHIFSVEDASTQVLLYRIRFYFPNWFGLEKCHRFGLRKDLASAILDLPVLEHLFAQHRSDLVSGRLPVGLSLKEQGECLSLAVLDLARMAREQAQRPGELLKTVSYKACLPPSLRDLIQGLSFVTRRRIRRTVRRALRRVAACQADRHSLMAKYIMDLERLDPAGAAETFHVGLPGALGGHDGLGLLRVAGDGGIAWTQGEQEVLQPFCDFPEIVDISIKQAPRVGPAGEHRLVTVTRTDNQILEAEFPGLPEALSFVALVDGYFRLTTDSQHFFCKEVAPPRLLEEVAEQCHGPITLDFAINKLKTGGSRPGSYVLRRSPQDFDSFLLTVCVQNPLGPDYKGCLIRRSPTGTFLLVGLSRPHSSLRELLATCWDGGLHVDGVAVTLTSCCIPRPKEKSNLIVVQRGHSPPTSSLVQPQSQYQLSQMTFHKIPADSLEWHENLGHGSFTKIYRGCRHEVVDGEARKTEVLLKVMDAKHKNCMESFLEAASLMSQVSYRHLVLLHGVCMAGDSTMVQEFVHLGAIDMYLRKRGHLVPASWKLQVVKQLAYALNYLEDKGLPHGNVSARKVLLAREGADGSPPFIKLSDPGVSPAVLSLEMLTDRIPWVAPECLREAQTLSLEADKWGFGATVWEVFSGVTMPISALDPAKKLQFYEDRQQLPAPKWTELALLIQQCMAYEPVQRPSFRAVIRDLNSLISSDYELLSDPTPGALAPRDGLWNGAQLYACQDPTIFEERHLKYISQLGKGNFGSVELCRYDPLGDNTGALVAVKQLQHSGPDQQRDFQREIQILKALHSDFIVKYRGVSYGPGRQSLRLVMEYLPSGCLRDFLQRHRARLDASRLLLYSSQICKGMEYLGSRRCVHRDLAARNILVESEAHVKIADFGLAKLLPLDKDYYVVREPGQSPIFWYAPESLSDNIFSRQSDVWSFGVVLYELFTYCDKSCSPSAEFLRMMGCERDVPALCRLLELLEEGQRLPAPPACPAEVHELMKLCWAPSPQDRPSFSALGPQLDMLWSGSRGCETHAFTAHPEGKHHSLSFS
Test: Inhibition of human JAK3 kinase domain at 100 nM relative to control
Conditions: not given

Row | Compound | inhibition [%]
5 | N#CCNC(=O)c1ccc(-c2ccnc(Nc3ccc(N4CCOCC4)cc3)n2)cc1 [MOMELOTINIB] | 54
6 | N#CCNC(=O)c1ccc(-c2ccnc(Nc3ccc(N4CCOCC4=O)cc3)n2)cc1 | 27
7 | CC(=O)N1C2CC1CN(c1ccc(Nc3nccc(-c4ccc(C(=O)NCC#N)cc4)n3)cc1)C2 | 29

System: not listed separately
Test: Tmax in Wistar rat at 3 mg/kg, po
Assay type: ADME, organism-based
Conditions: in vivo

Row | Compound | Tmax [h]
8 | N#CCNC(=O)c1ccc(-c2ccnc(Nc3ccc(N4CCOCC4)cc3)n2)cc1 [MOMELOTINIB] | 1

System: not listed separately
Test: Clearance in Wistar rat at 1 mg/kg, iv
Assay type: ADME, organism-based
Conditions: in vivo

Row | Compound | clearance [mL/min/kg]
9 | N#CCNC(=O)c1ccc(-c2ccnc(Nc3ccc(N4CCOCC4)cc3)n2)cc1 [MOMELOTINIB] | 4.76

Target: T3, Tyrosine-protein kinase JAK1 (Homo sapiens, UniProt P23458)
Test: Inhibition of human JAK1 kinase domain at 100 nM relative to control
Conditions: not given

T3 sequence (P23458 whole entry, the tested form may be a part): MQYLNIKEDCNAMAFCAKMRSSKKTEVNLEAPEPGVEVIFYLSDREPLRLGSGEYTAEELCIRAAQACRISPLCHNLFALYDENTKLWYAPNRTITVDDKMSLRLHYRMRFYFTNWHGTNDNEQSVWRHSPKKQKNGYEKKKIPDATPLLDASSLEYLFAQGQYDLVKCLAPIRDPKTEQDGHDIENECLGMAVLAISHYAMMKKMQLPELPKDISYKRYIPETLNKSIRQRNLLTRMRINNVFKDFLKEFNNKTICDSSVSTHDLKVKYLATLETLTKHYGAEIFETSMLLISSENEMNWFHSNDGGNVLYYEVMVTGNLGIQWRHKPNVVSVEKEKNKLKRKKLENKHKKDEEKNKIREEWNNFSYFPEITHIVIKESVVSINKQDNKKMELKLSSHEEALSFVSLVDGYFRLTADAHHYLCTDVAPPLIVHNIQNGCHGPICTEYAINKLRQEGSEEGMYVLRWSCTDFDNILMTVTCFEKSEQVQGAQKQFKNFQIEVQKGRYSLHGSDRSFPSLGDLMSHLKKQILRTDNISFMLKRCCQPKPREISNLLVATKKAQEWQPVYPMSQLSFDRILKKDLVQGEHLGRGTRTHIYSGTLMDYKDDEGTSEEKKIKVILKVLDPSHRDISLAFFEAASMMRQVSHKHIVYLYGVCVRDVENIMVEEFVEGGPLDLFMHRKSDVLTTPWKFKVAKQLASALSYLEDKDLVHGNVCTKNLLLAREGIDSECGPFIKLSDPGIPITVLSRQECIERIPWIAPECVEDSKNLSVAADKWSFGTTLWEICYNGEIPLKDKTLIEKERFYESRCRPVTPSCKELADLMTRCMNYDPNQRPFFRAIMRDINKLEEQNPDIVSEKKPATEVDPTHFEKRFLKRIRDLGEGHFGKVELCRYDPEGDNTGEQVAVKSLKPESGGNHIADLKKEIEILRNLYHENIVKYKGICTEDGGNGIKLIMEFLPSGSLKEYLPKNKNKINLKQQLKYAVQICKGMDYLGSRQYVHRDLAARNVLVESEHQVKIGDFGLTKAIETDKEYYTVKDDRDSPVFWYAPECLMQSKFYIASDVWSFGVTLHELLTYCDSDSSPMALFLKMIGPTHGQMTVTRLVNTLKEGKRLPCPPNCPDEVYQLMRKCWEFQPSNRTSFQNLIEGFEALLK

Row | Compound | inhibition [%]
10 | N#CCNC(=O)c1ccc(-c2ccnc(Nc3ccc(N4CCOCC4)cc3)n2)cc1 [MOMELOTINIB] | 84
11 | N#CCNC(=O)c1ccc(-c2ccnc(Nc3ccc(N4CCOCC4=O)cc3)n2)cc1 | 76
12 | CC(=O)N1C2CC1CN(c1ccc(Nc3nccc(-c4ccc(C(=O)NCC#N)cc4)n3)cc1)C2 | 59

System: Rattus norvegicus
Test: Antiinflammatory activity against peptidoglycan polysaccharide polymers induced arthritis in Sprague-Dawley rat model assessed as reduction in paw volume at 50 mg/kg administered twice a day for 3 days followed by PGPS addition 1 hr post compound treatment relative to control
Assay type: functional
Design: scale not given: the % may be the effect or the level left
Conditions: time 3 day

Row | Compound | Activity [%]
13 | N#CCNC(=O)c1ccc(-c2ccnc(Nc3ccc(N4CCOCC4)cc3)n2)cc1 [MOMELOTINIB] | 46

System: not listed separately
Test: AUC (0 to t) in Wistar rat at 3 mg/kg, po
Assay type: ADME, organism-based
Design: dose 3 mg/kg, route po
Conditions: in vivo

Row | Compound | AUC(0-t) [ng·h/mL]
14 | N#CCNC(=O)c1ccc(-c2ccnc(Nc3ccc(N4CCOCC4)cc3)n2)cc1 [MOMELOTINIB] | 2410

System: not listed separately
Test: MRT in Wistar rat at 3 mg/kg, po
Assay type: ADME, organism-based
Conditions: in vivo

Row | Compound | MRT [h]
15 | N#CCNC(=O)c1ccc(-c2ccnc(Nc3ccc(N4CCOCC4)cc3)n2)cc1 [MOMELOTINIB] | 4.43

System: not listed separately
Test: MRT in Wistar rat at 1 mg/kg, iv
Assay type: ADME, organism-based
Conditions: in vivo

Row | Compound | MRT [h]
16 | N#CCNC(=O)c1ccc(-c2ccnc(Nc3ccc(N4CCOCC4)cc3)n2)cc1 [MOMELOTINIB] | 1.55

System: not listed separately
Test: Half life in Wistar rat at 3 mg/kg, po
Assay type: ADME, organism-based
Conditions: in vivo

Row | Compound | half-life [h]
17 | N#CCNC(=O)c1ccc(-c2ccnc(Nc3ccc(N4CCOCC4)cc3)n2)cc1 [MOMELOTINIB] | 2.22

System: not listed separately
Test: Cmax in Wistar rat at 3 mg/kg, po
Assay type: ADME, organism-based
Design: dose 3 mg/kg, route po
Conditions: in vivo

Row | Compound | Cmax [ng/mL]
18 | N#CCNC(=O)c1ccc(-c2ccnc(Nc3ccc(N4CCOCC4)cc3)n2)cc1 [MOMELOTINIB] | 470

Target: T3, Tyrosine-protein kinase JAK1
Test: Inhibition of human JAK1 kinase domain at 10 nM relative to control
Conditions: not given

Row | Compound | inhibition [%]
19 | N#CCNC(=O)c1ccc(-c2ccnc(Nc3ccc(N4CCOCC4)cc3)n2)cc1 [MOMELOTINIB] | 40
20 | N#CCNC(=O)c1ccc(-c2ccnc(Nc3ccc(N4CCOCC4=O)cc3)n2)cc1 | 24
21 | CC(=O)N1C2CC1CN(c1ccc(Nc3nccc(-c4ccc(C(=O)NCC#N)cc4)n3)cc1)C2 | 21

System: not listed separately
Test: AUC (0 to t) in Wistar rat at 1 mg/kg, iv
Assay type: ADME, organism-based
Design: dose 1 mg/kg, route iv
Conditions: in vivo

Row | Compound | AUC(0-t) [ng·h/mL]
22 | N#CCNC(=O)c1ccc(-c2ccnc(Nc3ccc(N4CCOCC4)cc3)n2)cc1 [MOMELOTINIB] | 3570

Target: T1, Tyrosine-protein kinase JAK2
Test: Inhibition of human JAK2 kinase domain at 10 nM relative to control
Conditions: not given

Row | Compound | inhibition [%]
23 | N#CCNC(=O)c1ccc(-c2ccnc(Nc3ccc(N4CCOCC4)cc3)n2)cc1 [MOMELOTINIB] | 45
24 | N#CCNC(=O)c1ccc(-c2ccnc(Nc3ccc(N4CCOCC4=O)cc3)n2)cc1 | 20
25 | CC(=O)N1C2CC1CN(c1ccc(Nc3nccc(-c4ccc(C(=O)NCC#N)cc4)n3)cc1)C2 | 9

System: not listed separately
Test: Metabolic stability in rat liver microsomes
Assay type: ADME, Microsome
Conditions: not given

Row | Compound | Stability
26 | N#CCNC(=O)c1ccc(-c2ccnc(Nc3ccc(N4CCOCC4)cc3)n2)cc1 [MOMELOTINIB] | Stable

System: not listed separately
Test: Metabolic stability in human liver microsomes
Assay type: ADME, Microsome
Conditions: not given

Row | Compound | Stability
27 | N#CCNC(=O)c1ccc(-c2ccnc(Nc3ccc(N4CCOCC4)cc3)n2)cc1 [MOMELOTINIB] | Stable

System: not listed separately
Test: Oral bioavailability in Wistar rat at 3 mg/kg
Assay type: ADME, organism-based
Conditions: in vivo

Row | Compound | bioavailability [%]
28 | N#CCNC(=O)c1ccc(-c2ccnc(Nc3ccc(N4CCOCC4)cc3)n2)cc1 [MOMELOTINIB] | 24

System: not listed separately
Test: Solubility of the compound in acetate buffer at pH 4.5
Assay type: physicochemical
Conditions: not given

Row | Compound | solubility [µg/mL]
29 | N#CCNC(=O)c1ccc(-c2ccnc(Nc3ccc(N4CCOCC4)cc3)n2)cc1 [MOMELOTINIB] | 0.2 (≈ 0.483 µM)

System: not listed separately
Test: Half life in Wistar rat at 1 mg/kg, iv
Assay type: ADME, organism-based
Conditions: in vivo

Row | Compound | half-life [h]
30 | N#CCNC(=O)c1ccc(-c2ccnc(Nc3ccc(N4CCOCC4)cc3)n2)cc1 [MOMELOTINIB] | 1.25

System: not listed separately
Test: Volume of distribution at steady state in Wistar rat at 1 mg/kg, iv
Assay type: ADME, organism-based
Conditions: in vivo, read-out: Vdss

Row | Compound | Vd [L/kg]
31 | N#CCNC(=O)c1ccc(-c2ccnc(Nc3ccc(N4CCOCC4)cc3)n2)cc1 [MOMELOTINIB] | 0.43

System: not listed separately
Test: Initial plasma concentration in Wistar rat at 1 mg/kg, iv
Assay type: ADME, organism-based
Conditions: not given

Row | Compound | C0 [ng/mL]
32 | N#CCNC(=O)c1ccc(-c2ccnc(Nc3ccc(N4CCOCC4)cc3)n2)cc1 [MOMELOTINIB] | 3040

System: not listed separately
Test: Aqueous solubility of the compound
Assay type: physicochemical
Conditions: water

Row | Compound | solubility [µg/mL]
33 | N#CCNC(=O)c1ccc(-c2ccnc(Nc3ccc(N4CCOCC4)cc3)n2)cc1 [MOMELOTINIB] | 0.2 (≈ 0.483 µM)

System: not listed separately
Test: Solubility of the compound in PBS at pH 6.9
Assay type: physicochemical
Conditions: not given

Row | Compound | solubility [µg/mL]
34 | N#CCNC(=O)c1ccc(-c2ccnc(Nc3ccc(N4CCOCC4)cc3)n2)cc1 [MOMELOTINIB] | 0.2 (≈ 0.483 µM)

Target: T2, Tyrosine-protein kinase JAK3 (Homo sapiens)
Test: Inhibition of human JAK3 kinase domain at 10 nM relative to control
Conditions: not given

Row | Compound | inhibition [%]
35 | N#CCNC(=O)c1ccc(-c2ccnc(Nc3ccc(N4CCOCC4)cc3)n2)cc1 [MOMELOTINIB] | 4
36 | CC(=O)N1C2CC1CN(c1ccc(Nc3nccc(-c4ccc(C(=O)NCC#N)cc4)n3)cc1)C2 | 13

System: not listed separately
Test: Solubility of the compound in 0.1 N HCl
Assay type: physicochemical
Conditions: not given

Row | Compound | solubility [µg/mL]
37 | N#CCNC(=O)c1ccc(-c2ccnc(Nc3ccc(N4CCOCC4)cc3)n2)cc1 [MOMELOTINIB] | 262 (≈ 632 µM)

System: not listed separately
Test: Metabolic stability in dog liver microsomes
Assay type: ADME, Canis lupus familiaris, Microsome
Conditions: not given

Row | Compound | Stability
38 | N#CCNC(=O)c1ccc(-c2ccnc(Nc3ccc(N4CCOCC4)cc3)n2)cc1 [MOMELOTINIB] | Stable
